{"source": "patent US9260505B2", "about": "“Methods for screening for binding partners of G-protein coupled receptors” (Heptares Therapeutics Limited, priority 2007, dated 2016)", "key": {"βAR-m23": {"biological_target": "βAR-m23 (Meleagris gallopavo, UniProt P07700, A282L/C116L/F327A/F338M/M90V/R68S/Y227A)", "sequence (P07700 34-424 R68S/M90V/C116L/Y227A/A282L/F327A/F338M)": "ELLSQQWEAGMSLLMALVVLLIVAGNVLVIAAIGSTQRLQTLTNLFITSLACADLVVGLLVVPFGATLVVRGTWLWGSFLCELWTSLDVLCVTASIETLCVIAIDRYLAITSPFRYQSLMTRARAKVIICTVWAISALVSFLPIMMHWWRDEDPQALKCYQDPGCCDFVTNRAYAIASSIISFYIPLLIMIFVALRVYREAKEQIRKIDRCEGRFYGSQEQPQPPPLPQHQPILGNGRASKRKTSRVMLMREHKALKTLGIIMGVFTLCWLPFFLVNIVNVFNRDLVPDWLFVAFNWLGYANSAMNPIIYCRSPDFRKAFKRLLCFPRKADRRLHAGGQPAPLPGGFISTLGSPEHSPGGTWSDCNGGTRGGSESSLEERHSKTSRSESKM", "assay_type": "binding, turkey"}, "A2aR mutant Rag 23": {"biological_target": "A2aR mutant Rag 23", "settings": "detergent-solubilised"}, "[1]": {"experiment": "Thermostability of β adrenergic receptors expressed in mammalian cells, minus-ligand format (FIG. 26)", "settings": "0.1% dodecylmaltoside, apo-state heated, 3H-DHA", "text": "The resulting mutants were transiently expressed in mammalian cells, solubilised in 0.1% dodecylmaltoside and assayed for thermostability in the minus-ligand format (heating the apo-state, quenching on ice, adding 3H-DHA)."}}, "note": "Where two headings read alike, the source gives them in different places."}
{"compound": "1-[4,6-propyl-^3H]-dihydroalprenolol [[^3H]-dihydroalprenolol]", "values": [{"measurement": "Kd", "setting": "βAR-m23; membranes, n=2", "result": "6.5 ± 0.2", "unit": "nM"}, {"measurement": "Kd", "setting": "βAR-m23; semipurified receptor", "result": 12.5, "unit": "nM"}]}
{"compound": "CCNC(=O)[C@H]1O[C@@H](n2cnc3c(N)ncnc32)[C@H](O)[C@@H]1O", "note": "[[^3H]NECA]", "values": [{"measurement": "Kd", "setting": "A2aR mutant Rag 23", "result": "21 ± 1", "unit": "nM"}]}
{"compound": "human β1: human β1 adrenergic receptor", "values": [{"measurement": "apparent Tm", "setting": "[1]", "result": "~12", "unit": "°C"}]}
{"compound": "turkey β1: turkey β1 adrenergic receptor transiently expressed in mammalian cells", "values": [{"measurement": "apparent Tm", "setting": "[1]", "result": 23, "unit": "°C"}]}
